Converted amounts (≈) assume the structure as drawn.

The source of these data is article PMC5854716, “Synthesis, molecular docking, ctDNA interaction, DFT calculation and evaluation of antiproliferative and anti-Toxoplasma gondii activities of 2,4-diaminotriazine-thiazole derivatives” (Medicinal Chemistry Research, 2018).

In test [1] the test system is normal mouse fibroblast Balb/3T3 cells. Description: In vitro cytotoxicity (SRB), Balb/3T3. It counts as cell-based. To be noted: mean ± SD; for IC50: Mus musculus, BALB/3T3, 72 h exposure; for IC50 Balb/3T3: 72 h exposure. How it is done: Biphenotypic B myelomonocytic leukemia MV4-11, human lung carcinoma A549, human breast carcinoma MCF-7, and normal mouse fibroblast BALB/3T3 cells were obtained from American Type Culture Collection (Rockville, Maryland, USA). All the cell lines are being maintained at the Institute of Immunology and Experimental Therapy, Wroclaw, Poland. MV4-11 cells were cultured in RPMI 1640 medium (Gibco, UK) with 2 mM L-glutamine adjusted to contain 1.0 mM sodium pyruvate, and 10% fetal bovine serum (FBS) (all from Sigma-Aldrich, Germany). A549 cells were cultured in RPMI 1640+ Opti-MEM (1:1) (both from Gibco, UK), MCF-7 cells in Eagle medium (IIET, Wroclaw, Poland), BALB/3T3 in Dulbecco medium (IIET, Poland) supplemented with 2 mM L-glutamine and 1.0 mM sodium pyruvate, 10% fetal bovine serum (all from Sigma-Aldrich, Germany). The MCF-7 cell culture was supplemented with 0.8 mg/l of insulin (Sigma-Aldrich, Germany). All culture media were supplemented with 100 units/ml penicillin, and 100 µg/ml streptomycin (both from Polfa Tarchomin S.A., Poland). All cell lines were grown at 37 °C with 5% CO2 humidified atmosphere (Łączkowski et al. [2014], [2016a]). Prior to usage, the compounds were dissolved in DMSO and culture medium (1: 9) to the concentration of 1 mg/ml, and subsequently diluted in culture medium to reach the required concentrations (0.1, 1, 10, and 100 µg/ml) (Łączkowski et al. [2014], [2016a]). Twenty-four hours prior to the addition of the tested compounds, the cells counted using Burker hemocytometer were plated in 96-well plates (Sarstedt, Germany) at a density of 1 × 10^4 cells per well. The assay was performed after 72 h of exposure to varying concentrations of the tested agents. The in vitro cytotoxic effect of all agents was examined using the SRB assay for adherent cells (A549, MCF-7, and BALB/3T3) or MTT assay for leukemia cells (MV4-11) as described previously. […] Each compound in each concentration was tested in triplicate in a single experiment, which was repeated 3–7 times (Rubinstein et al. [1990]; Bramson et al. [1995]). Cells were attached to the bottom of plastic wells by fixing them with cold 50% TCA (trichloroacetic acid, POCH, Gliwice, Poland) on top of the culture medium in each well. The plates were incubated at 4 °C for 1 h and then washed five times with tap water. The cellular material fixed with TCA was stained with 0.1% sulforhodamine B (SRB, Sigma-Aldrich, Germany) and dissolved in 1% acetic acid (POCH, Gliwice, Poland) for 30 min. Unbound dye was removed by rinsing (4×) in 1% acetic acid. The protein-bound dye was extracted with 10 mM unbuffered Tris base (Sigma-Aldrich, Germany) for determination of the optical density (λ = 540 nm) in a computer-interfaced, 96-well Synergy H4 (BioTek Instruments USA) photometer microtiter plate reader (Sidoryk et al. [2012]).

The subject of test [2] is Toxoplasma gondii BK strain. Briefly: T. gondii tachyzoite intracellular proliferation in VERO host cells ([3H]uracil incorporation). It counts as cell-based. To be noted: VERO host cells; for activity at 0.9 µg/mL / activity at 1.8 µg/mL / activity at 3.9 µg/mL / activity at 7.8 µg/mL / activity at 15.6 µg/mL / activity at 31.2 µg/mL / activity at 62.5 µg/mL / activity at 125 µg/mL / IC50: Toxoplasma gondii; for IC50 / IC50 (50% inhibition of T. gondii proliferation in vitro): GraphPad Prism curves; for IC50: read-out: IC50 (50% inhibition of T. gondii proliferation in vitro). The essentials:
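VERO monolayers (2 × 10^4 cells/well) infected with 2 × 10^5 T. gondii tachyzoites/well in medium containing compounds at 0.9–125.00 μg/ml, with sulfadiazine at 5.0–2500.0 μg/ml as control, for 48 h at 37 °C. Growth measured by [3H]uracil incorporation over a further 18–20 h by scintillation counting, with host-cell-only cpm subtracted.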

Regarding `C/C(=N\Nc1nc(-c2ccc(Br)cc2)cs1)c1ccc(Nc2nc(N)nc(N)n2)cc1` [Compound 4d, (E)-N^2-(4-(1-(2-(4-(4-bromophenyl)-1,3-thiazol-2-yl)hydrazinylidene)ethyl)phenyl)-1,3,5-triazine-2,4,6-triamine], the values for the IC50 in test [1] and in test [2] were 65.2 ± 24.5 µg/mL and 37.8 µg/mL (≈ 76.2 µM), respectively. Moreover, the activity at 0.9 µg/mL in test [2] (0.9 µg/ml) amounted to 102%. The activity at 1.8 µg/mL in test [2] (1.8 µg/ml) was determined as 104%. The activity at 3.9 µg/mL in test [2] (3.9 µg/ml) came out at 102%. Besides, in test [2] (7.8 µg/ml), the activity at 7.8 µg/mL came out at 106%. Also, the activity at 15.6 µg/mL in test [2] (15.6 µg/ml) was 75.2%. The activity at 31.2 µg/mL in test [2] (31.2 µg/ml) was 62.8%. The activity at 62.5 µg/mL in test [2] (62.5 µg/ml) came to 29.3%. Besides, the activity at 125 µg/mL in test [2] (125.0 µg/ml) amounted to 15.1%.
Regarding `C/C(=N\Nc1nc(-c2ccc(NS(C)(=O)=O)cc2)cs1)c1ccc(Nc2nc(N)nc(N)n2)cc1` [Compound 4j, (E)-N-(4-(2-(2-(1-(4-(4,6-diamino-1,3,5-triazin-2-yloamino)phenyl)ethylidene)hydrazinyl)thiazol-4-yl)phenyl)-methanesulfonamide], in test [1], the “IC50 Balb/3T3” value is over 100 µg/mL. Besides, the “T. gondii intracellular proliferation” value in test [2] (0.9 µg/ml) was found to be 99.93%; in test [2] (1.8 µg/ml), 100.25%; in test [2] (3.9 µg/ml), 99.58%; in test [2] (7.8 µg/ml), 89.65%; in test [2] (15.6 µg/ml) it was 78.25%; in test [2] (31.2 µg/ml), 67.01%. Further, the “T. gondii intracellular proliferation” value in test [2] (62.5 µg/ml) amounted to 46.07%; in test [2] (125.0 µg/ml), 34.60%. In addition, in test [2], the “IC50 (50% inhibition of T. gondii proliferation in vitro)” value is 59.87 µg/mL.
Take `C/C(=N\Nc1nc(-c2cc3ccccc3oc2=O)cs1)c1ccc(Nc2nc(N)nc(N)n2)cc1` [Compound 4f, (E)-3-(2-(2-(1-(4-(4,6-diamino-1,3,5-triazin-2-yloamino)phenyl)ethylidene)hydrazinyl)thiazol-4-yl)-2H-chromen-2-on]: in test [1], the “IC50 Balb/3T3” value was over 100 µg/mL. In addition, the “T. gondii intracellular proliferation” value is reported as 101.02% in test [2] (0.9 µg/ml); 98.89% in test [2] (1.8 µg/ml); 75.89% in test [2] (3.9 µg/ml); 64.30% in test [2] (7.8 µg/ml); 55.65% in test [2] (15.6 µg/ml); 50.52% in test [2] (31.2 µg/ml). The “T. gondii intracellular proliferation” value is recorded as 37.17% in test [2] (62.5 µg/ml) and 14.03% in test [2] (125.0 µg/ml). Further, the “IC50 (50% inhibition of T. gondii proliferation in vitro)” value in test [2] amounted to 21.53 µg/mL.
Regarding `C/C(=N\Nc1nc(-c2ccc(C)cc2)cs1)c1ccc(Nc2nc(N)nc(N)n2)cc1` [Compound 4c, (E)-N^2-(4-(1-(2-(4-(4-tolyl)-1,3-thiazol-2-yl)hydrazinylidene)ethyl)phenyl)-1,3,5-triazine-2,4,6-triamine], the IC50 is over 100 µg/mL in test [1] and 51.4 µg/mL (≈ 119 µM) in test [2]. For the same compound, the activity at 0.9 µg/mL in test [2] (0.9 µg/ml) stood at 102%. Also, the activity at 1.8 µg/mL in test [2] (1.8 µg/ml) was determined as 102%. In addition, in test [2] (3.9 µg/ml), the activity at 3.9 µg/mL came to 110%. For the same compound, the activity at 7.8 µg/mL in test [2] (7.8 µg/ml) came to 100%. For the same compound, the activity at 15.6 µg/mL in test [2] (15.6 µg/ml) amounted to 86.2%. For the same compound, in test [2] (31.2 µg/ml), the activity at 31.2 µg/mL amounted to 58.6%. In addition, in test [2] (62.5 µg/ml), the activity at 62.5 µg/mL amounted to 40.1%. For the same compound, the activity at 125 µg/mL in test [2] (125.0 µg/ml) worked out at 30.9%.
In the case of `C/C(=N\Nc1nc(-c2ccc([N+](=O)[O-])cc2)cs1)c1ccc(Nc2nc(N)nc(N)n2)cc1` [Compound 4h, (E)-N^2-(4-(1-(2-(4-(4-nitrophenyl)-1,3-thiazol-2-yl)hydrazinylidene)ethyl)phenyl)-1,3,5-triazine-2,4,6-triamine], the IC50 is over 100 µg/mL in test [1] and 119 µg/mL (≈ 257 µM) in test [2]. Further, the activity at 0.9 µg/mL in test [2] (0.9 µg/ml) was found to be 103%. Besides, in test [2] (1.8 µg/ml), the activity at 1.8 µg/mL stood at 105%. For the same compound, the activity at 3.9 µg/mL in test [2] (3.9 µg/ml) worked out at 113%. Also, in test [2] (7.8 µg/ml), the activity at 7.8 µg/mL was 101%. Besides, the activity at 15.6 µg/mL in test [2] (15.6 µg/ml) came out at 85.7%. In addition, in test [2] (31.2 µg/ml), the activity at 31.2 µg/mL was 77.5%. For the same compound, the activity at 62.5 µg/mL in test [2] (62.5 µg/ml) worked out at 74%. Further, the activity at 125 µg/mL in test [2] (125.0 µg/ml) turned out to be 39.4%.
`C/C(=N\Nc1nc(-c2ccc(Cl)c(Cl)c2)cs1)c1ccc(Nc2nc(N)nc(N)n2)cc1` [Compound 4i, (E)-N^2-(4-(1-(2-(4-(3,4-dichlorophenyl)-1,3-thiazol-2-yl)hydrazinylidene)ethyl)phenyl)-1,3,5-triazine-2,4,6-triamine]: the results for the IC50 in test [1] and in test [2] were over 100 µg/mL and 14.9 µg/mL (≈ 30.7 µM), respectively. Moreover, the activity at 0.9 µg/mL in test [2] (0.9 µg/ml) is 101%. Also, in test [2] (1.8 µg/ml), the activity at 1.8 µg/mL came out at 102%. Further, the activity at 3.9 µg/mL in test [2] (3.9 µg/ml) stood at 79%. Further, the activity at 7.8 µg/mL in test [2] (7.8 µg/ml) was 55.9%. Also, in test [2] (15.6 µg/ml), the activity at 15.6 µg/mL was 45.7%. Further, in test [2] (31.2 µg/ml), the activity at 31.2 µg/mL amounted to 41.1%.
